# Results reported in patent US20230242964A1, “BIODEGRADABLE BIOCHEMICAL SENSOR FOR DETERMINING THE PRESENCE AND/OR THE LEVEL OF PESTICIDES OR ENDOCRINE DISRUPTORS: METHOD AND COMPOSITION” (priority 2018, published 2023).
# Tests used:
# E. coli EPSP Synthase = E. coli EPSP Synthase (Escherichia coli, UniProt P0A6D3); assay: EPSP synthase network #2B plugged to phosphate detection
# Excerpt: The entry of the network is composed of: the EPSP synthase that uses the phospho-enol pyruvate (PEP) and the 3-phospho Shikimate to produce 5-O-(1-caroxyvinyl)-3-phosphoshikimate and inorganic phosphate.
# Then 2 different networks have been tested: • One that converts the inorganic phosphate (Pi): Pi is combined with Inosine in the presence of the purine nucleoside phosphorylase to give Hypoxanthine. The Hypoxantine lead to Xanthine and H2O2 in the presence of Xanthine Oxidase. The Horseradish peroxidase uses the H2O2 to convert the O-dianisidine or the Amplex Red and give a colorimetric or fluorimetric signal detectable.
# First, the network has been tested in liquid buffer without vesicle or gel. […] Reaction was followed for 1 hour at 25° C. by registering the absorbance at 450 nm on a spectrophotometer. • One that converts the 5-O-(1-caroxyvinyl)-3-phosphoshikimate produced by the EPSP synthase: 5-O-(1-caroxyvinyl)-3-phosphoshikimate is metabolized by the Chorismate Synthase to give chorismate. This Chorismate is then transformed in pyruvate by the chorismate Lyase. Finaly the pyruvate is used by the Lactate dehydrogenase in the presence of NADH to give lactate and NAD+. The NADH consumption is followed by the change of fluorescence emission at 445 nm (Excitation at 340 nm)—or change of absorbance at 340 nm on a spectrophotometer. • 3.
# The reaction was followed by the change of fluorescence on a fluorimeter (Excitation at 530 nm/Emission at 590 nm) or by the change of absorbance at 450 nm on a spectrophotometer. It allowed us to determine the activity of the EPSP synthase toward Phosphoenol Pyruvate (PEP).
# BliGO SCF4 mutant = settings: cited from earlier work
# [1] = target: T1, Bacillus subtilis H244K Glycine/Glyphosate oxidase (Bacillus subtilis, UniProt O31616, H244K); assay: Glycine biochemical network #3, Amplex red/HRP fluorescence and colorimetric readout; settings: glyphosate at 100 μM, Tris buffer 50 mM pH 7,5
# T1 construct: purchased Creative enzyme NATE-1674
# Excerpt: It allowed us to detect the glycine.
# Chain of E. coli EPSP Synthase (P0A6D3 whole entry): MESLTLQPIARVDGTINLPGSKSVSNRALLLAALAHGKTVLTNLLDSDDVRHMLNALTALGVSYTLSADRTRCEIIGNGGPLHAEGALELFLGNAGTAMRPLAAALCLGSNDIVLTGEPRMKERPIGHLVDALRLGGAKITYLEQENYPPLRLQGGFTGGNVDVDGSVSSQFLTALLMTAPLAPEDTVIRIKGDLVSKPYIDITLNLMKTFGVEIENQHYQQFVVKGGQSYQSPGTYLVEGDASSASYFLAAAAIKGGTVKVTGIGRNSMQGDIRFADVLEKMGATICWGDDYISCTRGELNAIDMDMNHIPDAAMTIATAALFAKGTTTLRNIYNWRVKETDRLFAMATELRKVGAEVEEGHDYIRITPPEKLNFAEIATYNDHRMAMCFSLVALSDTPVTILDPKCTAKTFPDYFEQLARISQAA
# T1 sequence (O31616 whole entry H244K): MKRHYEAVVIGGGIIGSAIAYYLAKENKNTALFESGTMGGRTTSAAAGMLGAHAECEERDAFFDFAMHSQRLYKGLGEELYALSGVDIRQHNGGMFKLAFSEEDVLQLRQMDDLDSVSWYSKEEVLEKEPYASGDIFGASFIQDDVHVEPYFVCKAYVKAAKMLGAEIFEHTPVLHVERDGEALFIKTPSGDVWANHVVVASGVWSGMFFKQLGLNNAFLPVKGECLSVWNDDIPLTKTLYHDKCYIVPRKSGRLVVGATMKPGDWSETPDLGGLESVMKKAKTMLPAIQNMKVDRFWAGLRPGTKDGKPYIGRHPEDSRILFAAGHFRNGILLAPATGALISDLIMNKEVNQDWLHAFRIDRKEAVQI
smiles,measurement,setting,value
"C=C(OP(=O)(O)O)C(=O)O [PEP, phosphoenolpyruvate]",EPSP affinity for PEP,"E. coli EPSP Synthase; 50 mM Hepes pH 7, 25° C.",14 µM
same,Vmax of EPSP synthase toward PEP,"E. coli EPSP Synthase; 50 mM Hepes pH 7, 25° C.",1.026e-08 mol/L/s
NCC(=O)O [glycine],decrease of activity to glycine compared to WT,BliGO SCF4 mutant; BliGO SCF4 mutant vs WT,113 fold
O=C(O)CNCP(=O)(O)O [glyphosate],increase of affinity toward glyphosate compared to WT,BliGO SCF4 mutant; BliGO SCF4 mutant vs WT,8 fold
same,affinity toward glyphosate,BliGO SCF4 mutant; BliGO SCF4 mutant,1.58 mM
same,effect on the EPSP synthase,"E. coli EPSP Synthase; glyphosate 0 to 2 mM, concentration dependent",inhibitory effect
same,detection by network #3,[1],absence of detection
